Calls of active or inactive are those of the source. No cut-off for these calls is given here.
Columns and labels:
Cancer cell lines = assay: In vitro anticancer activity against 9 NCI colon cancer cell lines; inactive; assay type: functional, cell-based
[1] = In vitro anticancer activity against 9 NCI melanoma cell lines; inactive; assay type: functional
NCI [2] = assay: In vitro anticancer activity against 8 NCI CNS cancer cell lines; inactive; assay type: functional, cell-based
SCLC = assay: In vitro anticancer activity against 2 NCI SCLC cell lines; inactive; assay type: functional, cell-based
NSCLC = assay: In vitro anticancer activity against 11 NCI NSCLC cell lines; inactive; assay type: functional, cell-based
NCI [3] = assay: In vitro anticancer activity against 6 NCI ovarian cancer cell lines; inactive; assay type: functional, cell-based
NCI [4] = assay: In vitro anticancer activity against 9 NCI renal cancer cell lines; inactive; assay type: functional, cell-based
RPMI-8226 = assay: In vitro anticancer activity against RPMI-8226 leukemia cell line; assay type: functional; conditions: Homo sapiens
MOLT-4 = assay: In vitro anticancer activity against MOLT-4 leukemia cell line; assay type: functional; conditions: Homo sapiens
HL-60 = assay: In vitro anticancer activity against HL-60(TB) leukemia cell line; assay type: functional; conditions: Homo sapiens
CCRF-CEM [5] = assay: In vitro anticancer activity against CCRF-CEM leukemia cell line; assay type: functional; conditions: Homo sapiens
K562 = assay: In vitro anticancer activity against K-562 leukemia cell line; assay type: functional; conditions: Homo sapiens
SR = assay: In vitro anticancer activity against SR leukemia cell line; assay type: functional; conditions: Homo sapiens
CCRF-CEM [6] = assay: In vitro anticancer activity against CCRF-CEM leukemia cell line.(Maximum Concentration); assay type: functional; conditions: Homo sapiens

For O=C(NCCCl)Sc1ccccc1, the Activity (Cancer cell lines) was “inactive”, the Activity [1] was “inactive” and the Activity (NCI [2]) was “inactive”. The Activity (SCLC) was “inactive”, the Activity (NSCLC) was “inactive” and the Activity (NCI [3]) was “inactive”. For the same compound, the Activity (NCI [4]) was “inactive”.

With CCOC(=O)CSC(=O)NCCCl the Activity (Cancer cell lines) was “inactive”, the Activity [1] was “inactive” and the GI50 (RPMI-8226) was greater than 100 µM. For the same compound, the GI50 (MOLT-4) was greater than 100 µM, the Activity (NCI [2]) was “inactive” and the GI50 (HL-60) was 22.3 µM. The GI50 (CCRF-CEM [5]) was 7.22 µM, the Activity (SCLC) was “inactive” and the Activity (NSCLC) was “inactive”. The Activity (NCI [3]) was “inactive”, the Activity (NCI [4]) was “inactive” and the GI50 (K562) was 29 µM. The GI50 (SR) was greater than 100 µM.

For O=C(NCCCl)SCCO, the Activity (Cancer cell lines) was “inactive”, the Activity [1] was “inactive” and the GI50 (RPMI-8226) was greater than 100 µM. For the same compound, the GI50 (MOLT-4) was greater than 100 µM, the Activity (NCI [2]) was “inactive” and the GI50 (HL-60) was greater than 100 µM. The Activity (SCLC) was “inactive”, the Activity (NSCLC) was “inactive” and the Activity (NCI [3]) was “inactive”. The GI50 (CCRF-CEM [6]) was greater than 100 µM, the Activity (NCI [4]) was “inactive” and the GI50 (K562) was greater than 100 µM. It also gave a GI50 (SR) greater than 100 µM.

From ChEMBL document CHEMBL1152086, “Synthesis and in vitro anti-HIV and antitumor activity of new 2-chloroethyl thiocarbamates” (1995)
